Converted amounts (≈) assume the structure as drawn. Read-outs that look alike come from different tables or passages of the source.
What was measured:
Assay type in all cases: cell-based
[1] = system: E. coli KA797 cells carrying pUK21 with NmcA (pelB/Sec); test: microbe, parasite or virus in culture; conditions: Escherichia coli, antibiotic alone
[2] = system: E. coli KA797 cells carrying pUK21 with BlaC WT (Tat); test: microbe, parasite or virus in culture; conditions: Escherichia coli, antibiotic alone
[3] = system: E. coli KA797 cells carrying pUK21 with KPC-2 (Tat); test: microbe, parasite or virus in culture; conditions: Escherichia coli, antibiotic alone
[4] = system: E. coli KA797 cells carrying NmcA position 105 library
[5] = system: E. coli KA797 cells carrying CTX-M-14 position 105 library; conditions: CTX-M-14 WT (Tyr 105)
[6] = system: E. coli KA797 cells carrying TEM-1 position 105 library; conditions: for Fi MEM AVG: average of replicates
[7] = system: E. coli KA797 cells carrying pUK21 vector without the β-lactamase gene; test: microbe, parasite or virus in culture; conditions: Escherichia coli; antibiotic alone; pUK21 without β-lactamase gene; read-out: MIC

C[C@@H](O)[C@H]1C(=O)N2C(C(=O)O)=C(S[C@@H]3CN[C@H](C(=O)N(C)C)C3)[C@H](C)[C@H]12 [meropenem]
MIC [1]: 1.6 µg/mL (≈ 4.17 µM) | MIC [2]: 0.1 µg/mL (≈ 0.261 µM) | MIC [3]: 0.4 µg/mL (≈ 1.04 µM) | Fi (relative fitness), Replicate 1 ([4]; NmcA AA 105 Ala): -0.381 | Fi AVG (average fitness of replicates) ([4]; NmcA AA 105 Ala): -0.261 | Significance of average fitness ([4]; NmcA AA 105 Ala): - | Fi (relative fitness), Replicate 1 ([4]; NmcA AA 105 Arg): 0.092 | Fi AVG (average fitness of replicates) ([4]; NmcA AA 105 Arg): 0.048 | Fi (relative fitness), Replicate 1 ([4]; NmcA AA 105 Asn): 0.031 | Fi AVG (average fitness of replicates) ([4]; NmcA AA 105 Asn): 0.087 | Fi (relative fitness), Replicate 1 ([4]; NmcA AA 105 Asp): -0.205 | Fi AVG (average fitness of replicates) ([4]; NmcA AA 105 Asp): -0.182 | Significance of average fitness ([4]; NmcA AA 105 Asp): - | Fi (relative fitness), Replicate 1 ([4]; NmcA AA 105 Cys): -0.468 | Fi AVG (average fitness of replicates) ([4]; NmcA AA 105 Cys): -0.282 | Significance of average fitness ([4]; NmcA AA 105 Cys): - | Fi (relative fitness), Replicate 1 ([4]; NmcA AA 105 Gln): 0.037 | Fi AVG (average fitness of replicates) ([4]; NmcA AA 105 Gln): 0.055 | Fi (relative fitness), Replicate 1 ([4]; NmcA AA 105 Glu): -0.016 | Fi AVG (average fitness of replicates) ([4]; NmcA AA 105 Glu): -0.061 | Fi (relative fitness), Replicate 1 ([4]; NmcA AA 105 Gly): 0.015 | Fi AVG (average fitness of replicates) ([4]; NmcA AA 105 Gly): -0.027 | Fi (relative fitness), Replicate 1 ([4]; NmcA AA 105 His): 0.000 | Fi AVG (average fitness of replicates) ([4]; NmcA AA 105 His): 0.000 | Fi AVG (average fitness of replicates) ([4]; NmcA AA 105 Ile): 0.105 | Significance of average fitness ([4]; NmcA AA 105 Ile): + | Fi (relative fitness), Replicate 1 ([4]; NmcA AA 105 Leu): -0.100 | Fi AVG (average fitness of replicates) ([4]; NmcA AA 105 Leu): -0.100 | Significance of average fitness ([4]; NmcA AA 105 Leu): - | Fi (relative fitness), Replicate 1 ([4]; NmcA AA 105 Lys): -0.081 | Fi AVG (average fitness of replicates) ([4]; NmcA AA 105 Lys): -0.032 | Fi (relative fitness), Replicate 1 ([4]; NmcA AA 105 Met): -0.00142 | Fi AVG (average fitness of replicates) ([4]; NmcA AA 105 Met): 0.024 | Fi (relative fitness), Replicate 1 ([4]; NmcA AA 105 Phe): 0.169 | Fi AVG (average fitness of replicates) ([4]; NmcA AA 105 Phe): 0.140 | Significance of average fitness ([4]; NmcA AA 105 Phe): + | Fi (relative fitness), Replicate 1 ([4]; NmcA AA 105 Pro): -0.067 | Fi AVG (average fitness of replicates) ([4]; NmcA AA 105 Pro): -0.060 | Significance of average fitness ([4]; NmcA AA 105 Pro): - | Fi (relative fitness), Replicate 1 ([4]; NmcA AA 105 Ser): -0.066 | Fi AVG (average fitness of replicates) ([4]; NmcA AA 105 Ser): -0.071 | Significance of average fitness ([4]; NmcA AA 105 Ser): - | Fi (relative fitness), Replicate 1 ([4]; NmcA AA 105 Thr): -0.118 | Fi AVG (average fitness of replicates) ([4]; NmcA AA 105 Thr): -0.120 | Significance of average fitness ([4]; NmcA AA 105 Thr): - | Fi (relative fitness), Replicate 1 ([4]; NmcA AA 105 Trp): 0.105 | Fi AVG (average fitness of replicates) ([4]; NmcA AA 105 Trp): 0.078 | Fi (relative fitness), Replicate 1 ([4]; NmcA AA 105 Tyr): -0.154 | Fi AVG (average fitness of replicates) ([4]; NmcA AA 105 Tyr): -0.163 | Significance of average fitness ([4]; NmcA AA 105 Tyr): - | Fi (relative fitness), Replicate 1 ([4]; NmcA AA 105 Val): -0.043 | Fi AVG (average fitness of replicates) ([4]; NmcA AA 105 Val): -0.035 | WT abs Fi 1 (absolute fitness) ([4]; NmcA WT, replicate 1): 0.00454 | WT abs Fi 2 (absolute fitness) ([4]; NmcA WT, replicate 2): 0.092 | WT abs Fi 3 (absolute fitness) ([4]; NmcA WT, replicate 3): 0.017 | WT abs Fi 1 (absolute fitness of wild type, Replicate 1) [5]: -0.645 | WT abs Fi 2 (absolute fitness of wild type, Replicate 2) [5]: -0.807 | Fi MEM AVG ([6]; AA 105 Ala): 0.062 | Fi MEM 1 ([6]; AA 105 Ala, replicate 1): 0.046 | Fi MEM 2 ([6]; AA 105 Ala, replicate 2): 0.488 | Fi MEM 3 ([6]; AA 105 Ala, replicate 3): -0.350 | Fi MEM AVG ([6]; AA 105 Arg): 0.048 | Fi MEM 1 ([6]; AA 105 Arg, replicate 1): 0.163 | Fi MEM 2 ([6]; AA 105 Arg, replicate 2): 0.269 | Fi MEM 3 ([6]; AA 105 Arg, replicate 3): -0.287 | Fi MEM AVG ([6]; AA 105 Asn): -0.031 | Fi MEM 1 ([6]; AA 105 Asn, replicate 1): -0.022 | Fi MEM 2 ([6]; AA 105 Asn, replicate 2): 0.493 | Fi MEM 3 ([6]; AA 105 Asn, replicate 3): -0.563 | Fi MEM AVG ([6]; AA 105 Asp): -0.366 | Fi MEM 1 ([6]; AA 105 Asp, replicate 1): -1.030 | Fi MEM 2 ([6]; AA 105 Asp, replicate 2): 0.356 | Fi MEM 3 ([6]; AA 105 Asp, replicate 3): -0.424 | Fi MEM AVG ([6]; AA 105 Cys): 0.031 | Fi MEM 1 ([6]; AA 105 Cys, replicate 1): 0.333 | Fi MEM 2 ([6]; AA 105 Cys, replicate 2): 0.230 | Fi MEM 3 ([6]; AA 105 Cys, replicate 3): -0.470 | Fi MEM AVG ([6]; AA 105 Gln): -0.069 | Fi MEM 1 ([6]; AA 105 Gln, replicate 1): -0.210 | Fi MEM 2 ([6]; AA 105 Gln, replicate 2): 0.084 | Fi MEM 3 ([6]; AA 105 Gln, replicate 3): -0.080 | Fi MEM AVG ([6]; AA 105 Glu): -0.063 | Fi MEM 1 ([6]; AA 105 Glu, replicate 1): -0.084 | Fi MEM 2 ([6]; AA 105 Glu, replicate 2): 0.140 | Fi MEM 3 ([6]; AA 105 Glu, replicate 3): -0.245 | Fi MEM AVG ([6]; AA 105 Gly): -0.130 | Fi MEM 1 ([6]; AA 105 Gly, replicate 1): -0.195 | Fi MEM 2 ([6]; AA 105 Gly, replicate 2): 0.032 | Fi MEM 3 ([6]; AA 105 Gly, replicate 3): -0.226 | Fi MEM AVG ([6]; AA 105 His): -0.172 | Fi MEM 1 ([6]; AA 105 His, replicate 1): -0.391 | Fi MEM 2 ([6]; AA 105 His, replicate 2): 0.351 | Fi MEM 3 ([6]; AA 105 His, replicate 3): -0.475 | Fi MEM AVG ([6]; AA 105 Ile): 0.078 | Fi MEM 1 ([6]; AA 105 Ile, replicate 1): 0.231 | Fi MEM 2 ([6]; AA 105 Ile, replicate 2): 0.143 | Fi MEM 3 ([6]; AA 105 Ile, replicate 3): -0.140 | Fi MEM AVG ([6]; AA 105 Leu): -0.036 | Fi MEM 1 ([6]; AA 105 Leu, replicate 1): -0.102 | Fi MEM 2 ([6]; AA 105 Leu, replicate 2): 0.170 | Fi MEM 3 ([6]; AA 105 Leu, replicate 3): -0.177 | Fi MEM AVG ([6]; AA 105 Lys): -0.052 | Fi MEM 1 ([6]; AA 105 Lys, replicate 1): -0.122 | Fi MEM 2 ([6]; AA 105 Lys, replicate 2): 0.122 | Fi MEM 3 ([6]; AA 105 Lys, replicate 3): -0.155 | Fi MEM AVG ([6]; AA 105 Met): -0.379 | Fi MEM 1 ([6]; AA 105 Met, replicate 1): -0.840 | Fi MEM 2 ([6]; AA 105 Met, replicate 2): 0.139 | Fi MEM 3 ([6]; AA 105 Met, replicate 3): -0.436 | Fi MEM AVG ([6]; AA 105 Phe): -0.175 | Fi MEM 1 ([6]; AA 105 Phe, replicate 1): 0.171 | Fi MEM 2 ([6]; AA 105 Phe, replicate 2): -0.315 | Fi MEM 3 ([6]; AA 105 Phe, replicate 3): -0.381 | Fi MEM AVG ([6]; AA 105 Pro): -0.026 | Fi MEM 1 ([6]; AA 105 Pro, replicate 1): 0.015 | Fi MEM 2 ([6]; AA 105 Pro, replicate 2): 0.091 | Fi MEM 3 ([6]; AA 105 Pro, replicate 3): -0.184 | Fi MEM AVG ([6]; AA 105 Ser): -0.010 | Fi MEM 1 ([6]; AA 105 Ser, replicate 1): 0.139 | Fi MEM 2 ([6]; AA 105 Ser, replicate 2): 0.033 | Fi MEM 3 ([6]; AA 105 Ser, replicate 3): -0.203 | Fi MEM AVG ([6]; AA 105 Thr): -0.084 | Fi MEM 1 ([6]; AA 105 Thr, replicate 1): -0.289 | Fi MEM 2 ([6]; AA 105 Thr, replicate 2): 0.235 | Fi MEM 3 ([6]; AA 105 Thr, replicate 3): -0.199 | Fi MEM AVG ([6]; AA 105 Trp): -0.176 | Fi MEM 1 ([6]; AA 105 Trp, replicate 1): -0.657 | Fi MEM 2 ([6]; AA 105 Trp, replicate 2): 0.184 | Fi MEM 3 ([6]; AA 105 Trp, replicate 3): -0.056 | Fi MEM AVG ([6]; AA 105 Tyr): 0.000 | Fi MEM 1 ([6]; AA 105 Tyr, replicate 1): 0.000 | Fi MEM 2 ([6]; AA 105 Tyr, replicate 2): 0.000 | Fi MEM 3 ([6]; AA 105 Tyr, replicate 3): 0.000 | Fi MEM AVG ([6]; AA 105 Val): -0.088 | Fi MEM 1 ([6]; AA 105 Val, replicate 1): -0.115 | Fi MEM 2 ([6]; AA 105 Val, replicate 2): 0.193 | Fi MEM 3 ([6]; AA 105 Val, replicate 3): -0.342 | WT abs Fi 1 ([6]; absolute fitness of TEM-1 WT, MEM, replicate 1): 0.006 | WT abs Fi 2 ([6]; absolute fitness of TEM-1 WT, MEM, replicate 2): -0.204 | WT abs Fi 3 ([6]; absolute fitness of TEM-1 WT, MEM, replicate 3): 0.439 | MIC [7]: 0.05 µg/mL (≈ 0.13 µM)

From PMC12274840 (The Journal of Biological Chemistry, 2025)
